Laboratory results reported in patent publication US7855177B1, “Methods and kits for preventing hypoglycemia” (Cebix Inc., priority 2009, dated 2010).

Legend:
[1] = test system: type 1 diabetes patients with peripheral neuropathy; test: Phase II trial: ECG and vital signs; format: in vivo, human; settings: for BPd (diastolic blood pressure), change from baseline to 6 months treatment, Mean ± SD / BPd (diastolic blood pressure), change from baseline to 6 months treatment, Median / BPs (systolic blood pressure), change from baseline to 6 months treatment, Mean ± SD / BPs (systolic blood pressure), change from baseline to 6 months treatment, Median / Heart rate, change from baseline to 6 months treatment, Mean ± SD / Heart rate, change from baseline to 6 months treatment, Median / QTc-interval Bazett, change from baseline to 6 months treatment, Mean ± SD / QTc-interval Bazett, change from baseline to 6 months treatment, Median / QTc-interval Fredericia, change from baseline to 6 months treatment, Mean ± SD / QTc-interval Fredericia, change from baseline to 6 months treatment, Median: PP data set
Experimental: ECG was performed at baseline and at end of study, i.e., visit 4 (at 6 months±2 weeks from the S/B visit).

C-peptide antibodies = test: Phase II trial: antibody formation against C-peptide (ELISA); format: in vivo, human; settings: baseline and after 3 and 6 months of C-peptide treatment
Description: C-peptide plasma samples, C-peptide antibodies, and markers for atherosclerosis were processed (centrifuged, etc.) and stored frozen until transport to a central lab. HLA typing samples were shipped to a central lab for processing and storage until analysis. All samples there were labelled uniquely, including information about screening number and sample time.
Samples for the assessment of antibody formation were collected at baseline and at visits 2 and 4. An appropriate enzyme-linked immunoabsorbant assay (ELISA) method was developed and assessments carried out.

[2] = test system: type 1 diabetes patients with peripheral neuropathy; settings: in vivo
Experimental: The safety measurements comprised collection of AEs, spontaneously reported by the patient or recorded by the investigator at each clinical visit. Review of laboratory investigations, vital signs, and physical examinations was performed at the S/B visit, visit 2, and at end of study (visit 4). ECG was performed at the S/B visit and at visit 4.
An AE was classified as “unexpected event” (i.e., if not specifically listed in the Investigator's Brochure) in terms of nature, severity, or frequency. All AEs, including intercurrent illnesses and increased severity or frequency of sign/symptoms of a concomitant disease was reported and documented as described below. AEs were documented on an “Adverse Event/Serious Adverse Event” page of the CRF and in the patient's medical records. Any AE occurring at any time after the end of the study, considered to be caused by the study medication—and therefore a possible adverse drug reaction—was reported to the sponsor.
The period of observation for AEs extended from the time the patient started on trial medication until end of the study. AEs were divided into the categories “serious” and “non-serious”. This determined the procedure used to report/document the AE.
Regardless of the classification of an AE as serious or non-serious (see above), its severity was assessed as mild, moderate, or severe, according to medical criteria alone:
Descriptive statistics were used for safety variables. For lab parameters summary statistics were presented as change from baseline and between doses. The changes from baseline were calculated and compared with normal ranges. The safety analysis set included all patients who obtained at least one dose of the investigational drug. AEs were coded according to the MedDRA dictionary. The frequencies of AEs are tabulated by body system and included/preferred term.

[3] = S.C.; cited from earlier work
[4] = Phase II trial: C-peptide plasma levels (time-resolved fluoroimmunoassay); format: in vivo, human
Experimental: The sampling of C-peptide in plasma at visits 2 and 4 coincided with the clinical visit and the time between the most recent administration of the trial drug and sampling varied between patients. Thereby, the result of C-peptide concentrations in plasma was less suitable for pharmacokinetic evaluations, but the results contributed to the assessment of treatment compliance.
C-peptide plasma levels were measured at baseline, and after 3 and 6 months of treatment. Analysis was performed by the Department of Clinical Chemistry Karolinska University Hospital, Solna using a time-resolved fluoroimmunoassay (AutoDelfia, Wallac Oy, Turku, Finland). […] The plasma levels of C-peptide attained in this study ranged from about 0.2 nM to a maximum of about 6 nM in the high dose group.
C-peptide plasma levels were also measured pre-dosing in the morning in 22 randomly selected patients at the Karolinska Hospital after 4.5 months of study treatment (visit 3). As compared to the C-peptide concentration at baseline, the C-peptide plasma level at this visit was unchanged in the placebo-treated patients (0±0.008 nmoL/L; n=10), increased by 0.045±0.092 nmoL/L in the low-dose C-peptide group (n=8) and increased by 0.13±0.083 nmoL/L in the high-dose C-peptide group (n=4).

[5] = test system: type 1 diabetes patients with peripheral neuropathy; test: Phase II trial: hypoglycemic events and hypoglycemic coma; format: in vivo, human
Experimental: The study was a multicenter, double-blind, randomized, placebo-controlled phase II trial comparing the effect of subcutaneous injection (S.C.) of 500 nmoL/24 h (1.5 mg) C-peptide; 1,500 nmoL/24 h (4.5 mg) C-peptide and placebo treatment for 6 months in type 1 diabetes patients with peripheral neuropathy.
Hypoglycemic events are common events in insulin-treated patients. For practical reasons only severe hypoglycemic events, i.e., if the patient required assistance from another person in order to regain normoglycaemia, were reported as an AE.

[6] = High-dose C-peptide, Metabolism and nutritional disorders
[7] = Low-dose C-peptide, Metabolism and nutritional disorders

CC(C)C[C@H](NC(=O)[C@H](C)NC(=O)[C@H](CC(C)C)NC(=O)[C@@H]1CCCN1C(=O)[C@H](CCC(N)=O)NC(=O)[C@H](CC(C)C)NC(=O)[C@H](CO)NC(=O)CNC(=O)[C@H](C)NC(=O)CNC(=O)[C@@H]1CCCN1C(=O)CNC(=O)CNC(=O)CNC(=O)[C@H](CC(C)C)NC(=O)[C@H](CCC(=O)O)NC(=O)[C@@H](NC(=O)[C@H](CCC(N)=O)NC(=O)CNC(=O)[C@@H](NC(=O)[C@H](CCC(N)=O)NC(=O)[C@H](CC(C)C)NC(=O)[C@H](CC(=O)O)NC(=O)[C@H](CCC(=O)O)NC(=O)[C@H](C)NC(=O)[C@@H](N)CCC(=O)O)C(C)C)C(C)C)C(=O)N[C@@H](CCC(=O)O)C(=O)NCC(=O)N[C@@H](CO)C(=O)N[C@@H](CC(C)C)C(=O)N[C@@H](CCC(N)=O)C(=O)O [C-peptide]
BPd (diastolic blood pressure), change from baseline to 6 months treatment, Mean ± SD ([1]; High-dose C-peptide, n = 39): −2.6 ± 8.0 mm Hg | BPd (diastolic blood pressure), change from baseline to 6 months treatment, Median ([1]; High-dose C-peptide, n = 39): −1.0 mm Hg | BPs (systolic blood pressure), change from baseline to 6 months treatment, Mean ± SD ([1]; High-dose C-peptide, n = 39): −8.8 ± 10.0 mm Hg | BPs (systolic blood pressure), change from baseline to 6 months treatment, Median ([1]; High-dose C-peptide, n = 39): −8.0 mm Hg | Heart rate, change from baseline to 6 months treatment, Mean ± SD ([1]; High-dose C-peptide, n = 39): −3.2 ± 10.0 bpm | Heart rate, change from baseline to 6 months treatment, Median ([1]; High-dose C-peptide, n = 39): −4.0 bpm | QTc-interval Bazett, change from baseline to 6 months treatment, Mean ± SD ([1]; High-dose C-peptide, n = 39): -4.5 ± 20.3 ms | QTc-interval Bazett, change from baseline to 6 months treatment, Median ([1]; High-dose C-peptide, n = 39): 0.0 ms | QTc-interval Fredericia, change from baseline to 6 months treatment, Mean ± SD ([1]; High-dose C-peptide, n = 39): -0.5 ± 16.2 ms | QTc-interval Fredericia, change from baseline to 6 months treatment, Median ([1]; High-dose C-peptide, n = 39): 0.0 ms | BPd (diastolic blood pressure), change from baseline to 6 months treatment, Mean ± SD ([1]; Low-dose C-peptide, n = 53): −2.7 ± 8.2 mm Hg | BPd (diastolic blood pressure), change from baseline to 6 months treatment, Median ([1]; Low-dose C-peptide, n = 53): −1.0 mm Hg | BPs (systolic blood pressure), change from baseline to 6 months treatment, Mean ± SD ([1]; Low-dose C-peptide, n = 53): −2.1 ± 12.8 mm Hg | BPs (systolic blood pressure), change from baseline to 6 months treatment, Median ([1]; Low-dose C-peptide, n = 53): −1.0 mm Hg | Heart rate, change from baseline to 6 months treatment, Mean ± SD ([1]; Low-dose C-peptide, n = 53): −0.9 ± 8.2 bpm | Heart rate, change from baseline to 6 months treatment, Median ([1]; Low-dose C-peptide, n = 53): −2.0 bpm | QTc-interval Bazett, change from baseline to 6 months treatment, Mean ± SD ([1]; Low-dose C-peptide, n = 53): -0.1 ± 17.5 ms | QTc-interval Bazett, change from baseline to 6 months treatment, Median ([1]; Low-dose C-peptide, n = 53): 0.0 ms | QTc-interval Fredericia, change from baseline to 6 months treatment, Mean ± SD ([1]; Low-dose C-peptide, n = 53): 0.9 ± 14.1 ms | QTc-interval Fredericia, change from baseline to 6 months treatment, Median ([1]; Low-dose C-peptide, n = 53): 1.3 ms | changes in heart rate, blood pressure, and QTc ([1]; any of the three treatment groups): nor were there any significant changes | decrease in systolic blood pressure compared to the low-dose C-peptide group ([1]; high-dose C-peptide group, p<0.004, not different from placebo): significantly greater decrease | reactivity (antibodies) to C-peptide (C-peptide antibodies): no or very weak reactivity | AEs possibly/probably related to the study drug [2]: 8 | Acute HIV infection, number of AEs [2]: 1 | Infections and infestations: Acute HIV infection, treatment emergent AE intensity (number of incidences) [2]: M (1) | Infections and infestations: Herpes zoster, treatment emergent AE intensity (number of incidences) [2]: M (1) | Nasopharyngitis, number of AEs [2]: 23 | bioavailability of subcutaneously administered C-peptide [3]: approximately 80% | expected concentrations relative to the low dose regimen ([4]; high dose 1,500 nmoL/24 h S.C., expected): ~3 times | increase of pre-dosing morning C-peptide plasma level vs baseline ([4]; high-dose C-peptide group, n=4, 4.5 months (visit 3)): 0.13 ± 0.083 nmol/L | expected physiological mean plasma concentration ([4]; low dose 500 nmoL/24 h S.C., 4 times daily, expected): ~1 nmoL/L | increase of pre-dosing morning C-peptide plasma level vs baseline ([4]; low-dose C-peptide group, n=8, 4.5 months (visit 3)): 0.045 ± 0.092 nmol/L | hypoglycemic coma episodes requiring external assistance ([5]; C-peptide treated group): Two | occurrences of hypoglycemic coma ([5]; C-peptide treated groups, 6 months, none in placebo group): four | Blood glucose fluctuation, number of AEs [5, 6]: 0 | Hyperglycemia, number of AEs [5, 6]: 1 | Hyperlipidemia, number of AEs [5, 6]: 0 | Hypoglycemia, number of AEs [5, 6]: 5 | Hypoglycemia, number of AEs probably/possibly related to study drug [5, 6]: 1 | Hypoglycemic coma, number of AEs [5, 6]: 2 | Hypothyroidism, number of AEs [5, 6]: 0 | Increased appetite, number of AEs [5, 6]: 0 | Insulin sensitivity, number of AEs [5, 6]: 0 | Vitamin B12 deficiency, number of AEs [5, 6]: 1 | Blood glucose fluctuation, number of AEs [5, 7]: 0 | Hyperglycemia, number of AEs [5, 7]: 1 (1) | Hyperglycemia, number of AEs probably/possibly related to study drug [5, 7]: 1 (1) | Hyperlipidemia, number of AEs [5, 7]: 1 | Hypoglycemia, number of AEs [5, 7]: 2 | Hypoglycemia, number of AEs probably/possibly related to study drug [5, 7]: 1 | Hypoglycemic coma, number of AEs [5, 7]: 2 | Hypothyroidism, number of AEs [5, 7]: 0 | Increased appetite, number of AEs [5, 7]: 0 | Insulin sensitivity, number of AEs [5, 7]: 1 (1) | Insulin sensitivity, number of AEs probably/possibly related to study drug [5, 7]: 1 (1) | Vitamin B12 deficiency, number of AEs [5, 7]: 0 | risk of hypoglycemic coma ([5]; subpopulation of patients, C-peptide replacement therapy): increased risk of hypoglycemic coma
